# Reference: patent US20260345582A1, “PRODRUG FOR ANTI-AGING RELATED DISEASES AND USE METHOD THEREOF” (Beijing SunCell Bio-Medical Co., Ltd., priority 2022, published 2026)
# Key:
# [1] = tested on: normal cells (HEF, HELF, A549, MRC5, BJ, HUVEC); assay: in vitro toxicity to normal (non-senescent) cells, multiple cell models (CCK-8); assay type: cell-based, human; conditions: especially some cells of primary origins sensitive to Bcl-xL inhibition
# Description: (§1) Induction of the Cellular Senescence
# [2] = liver microsomal metabolic stability, monkey
# Protocol: (§2) Hepatic Microsomal Metabolic Stability
# (§3) A13bGa1 was co-incubated with the mouse, rat, canine, monkey and human […] and the incubation medium at a final drug concentration of 1 μM in the incubation system for 60 minutes. Samples were taken and analyzed at time points 0, 15, 30, 45 and 60 minutes during the incubation. The reaction was terminated by adding an amount of acetonitrile solution containing the internal standard. […] The residual percentage, half-life, intrinsic clearance, amplified clearance, hepatic clearance and hepatic extraction ratio were determined. The entire experiment was performed in triplicate. All data calculations were performed by Microsoft Excel software. Peak areas were detected by extracting the ionic spectrum. The in vitro half-life (t1/2) of the parent compound was detected by fitting the natural logarithm of the percentage elimination of the parent compound linearly to time.
# (§4) The in vitro intrinsic clearance (in μL/min/mg protein) was calculated using the following equation: in vitro CLint=kV/N
# (§5) The amplified clearance (in mL/min/kg) was calculated using the following equation: Amplified CLint=kV/N×the amplification factor
# (§6) The hepatic clearance (in mL/min/kg) was calculated using the following equation: The predicted hepatic CLH=(Q×Fu/RB×the amplified CLint)/(Q+Fu/RB×the amplified CLint) • V=the incubation volume per well (0.2 mL); • N=the total amount of protein (mg) • Q=the hepatic blood flow (mL/min/kg) • Fu=the plasma free rate (assumed to be 1) • RB=the whole blood partition coefficient (assumed to be 1)
# (§7) The hepatic uptake rate was calculated using the following equation:
# (§8) The hepatic extraction ratio (ER)=(the predicted hepatic CLH)/Q
# [3] = liver microsomal metabolic stability, canine
# Protocol: as §2, §3, §4, §5, §6, §7, §8
# [4] = plasma metabolic stability, all species; assay type: in vitro ADME; conditions: human, monkey, canine, rat, and mouse; preliminary test
# Protocol: (§9) Plasma Metabolic Stability
# (§10) Termination of the reaction was accomplished by the addition of 3× volume of acetonitrile and centrifugation at 16000 g for 20 minutes. The supernatant was taken for a LC-MS/MS analysis. The chromatographic column: Waters XSelect HSS T3; the flow rate: 500 μL/min; the eluent: A, water (0.1% formic acid); B, acetonitrile (0.1% formic acid); the gradient elution: 0-1.5 min, 5% B, 1.5-9 min, 5%-80% B, 9-12 min, 80%-100% B, 12-14 min, 100% B, 14-14.3 min, 100%-5% B, 14.3-15 min, 5% B.
# [5] = liver microsomal metabolic stability, human
# Protocol: as §2, §3, §4, §5, §6, §7, §8
# [6] = plasma metabolic stability, mouse; assay type: in vitro ADME; conditions: 120 min
# Protocol: as §9, §10
# [7] = plasma metabolic stability, canine; assay type: in vitro ADME; conditions: dog, 120 min
# Protocol: as §9, §10
# [8] = tested on: BJ cells (human skin fibroblast cell line); assay: in vitro killing of induced senescent BJ cells (CCK-8); assay type: cell-based; conditions: human skin-derived fibroblasts, FIG. 3D
# Description: as §1
# [9] = 10 μM prodrug, read-out: The peak area after normalisation at minute 120, oxidative dehydrogenation metabolite
# [10] = 10 μM, read-out: The peak area after normalisation at minute 120, initial drug
smiles,measurement,setting,value
Cc1c(-c2ccc(N3CCc4cccc(C(=O)Nc5nc6ccccc6s5)c4C3)nc2C(=O)OCc2ccc(O[C@@H]3O[C@H](CO)[C@H](O)[C@H](O)[C@H]3O)c([N+](=O)[O-])c2)cnn1CC12CC3CC(CC(C3)C1)C2 [Compound A13bGa1],toxicity to the normal cells compared with the parent compound A13,[1],greatly reduced
same,The hepatic extraction ratio (E),[2],0.69
same,The intrinsic clearance in vitro Clint,"[2]; 1 μM, 60 min",65.35 μL/min/mg protein
same,The predicted intrinsic hepatic clearance Clint,[2]; Fu and RB assumed to be 1,30.18 mL/min/kg
same,CLint scaled at 1 µM,[2]; microsomes,98 mL/min/kg
same,"half-life at 1 h, 1 µM",[2]; microsomes,21.2 min
same,The hepatic extraction ratio (E),[3]; canine,0.70
same,The intrinsic clearance in vitro Clint,"[3]; canine, 1 μM, 60 min",29.31 μL/min/mg protein
same,The predicted intrinsic hepatic clearance Clint,"[3]; canine, Fu and RB assumed to be 1",21.72 mL/min/kg
same,CLint scaled at 1 µM,"[3]; dog, microsomes",73.1 mL/min/kg
same,"half-life at 1 h, 1 µM","[3]; dog, microsomes",47.3 min
same,stability in the plasma,[4],highly stable
same,The hepatic extraction ratio (E),[5],0.86
same,The predicted intrinsic hepatic clearance Clint,[5]; Fu and RB assumed to be 1,17.90 mL/min/kg
same,"CLint scaled at 1 h, 1 µM",[5]; microsomes,132 mL/min/kg
same,"half-life at 1 h, 1 µM",[5]; microsomes,13.1 min
same,"microsomal CLint at 1 h, 1 µM",[5]; microsomes,106 µL/min/mg
same,"metabolised at 2 h, 10 µM",[6]; [9],0.04%
same,"remaining at 2 h, 10 µM",[6]; [10],100%
same,"metabolised at 2 h, 10 µM",[7]; [9],0.48%
same,"remaining at 2 h, 10 µM",[7]; [10],99.5%
same,"killing of the senescent cells, efficiency and selectivity",[8],highly efficient and selective in killing the senescent cells
